Experimental data as given in patent US9487516B2, “Antibacterial oxadiazolone derivatives” (priority 2013, dated 2016).
Values after ≈ are worked out from the molar mass of the structure shown.

Assays:
Assay in all cases: Bacterial growth minimal inhibitory concentration (microdilution, cation-adjusted Mueller-Hinton Broth)
Format in all cases: cell-based
[1] = tested on: Acinetobacter baumanii T6474; conditions: Acinetobacter baumannii, multiply-resistant strain (in particular quinolone-resistant)
Experimental: (§1) Minimal Inhibitory Concentrations (MICs; mg/L) were determined in cation-adjusted MuellerHinton Broth by a microdilution method following the description given in “Methods for Dilution Antimicrobial Susceptibility Tests for Bacteria that Grow Aerobically”, Approved standard, 7th ed., Clinical and Laboratory Standards Institute (CLSI) Document M7-A7, Wayne, Pa., USA, 2006.
(§2) All Example compounds were tested against several Gram positive and Gram negative bacteria. […] Staphylococcus aureus A798, Enterococcus faecium A949 and Acinetobacter baumanii T6474 are multiply-resistant strains (in particular quinolone-resistant), while Moraxella catarrhalis A894 is a quinolone-sensitive strain and Staphylococcus aureus ATCC29213 is a methicillin-sensitive and quinolone-sensitive strain.

[2] = tested on: Moraxella catarrhalis A894; conditions: quinolone-sensitive strain
Experimental: as §1, §2

[3] = tested on: Staphylococcus aureus A798; conditions: multiply-resistant strain (in particular quinolone-resistant), read-out: MIC for S. aureus A798
Experimental: as §1, §2

[4] = tested on: Staphylococcus aureus ATCC29213; conditions: methicillin-sensitive and quinolone-sensitive strain, read-out: MIC for S. aureus ATCC29213
Experimental: as §1, §2

[5] = tested on: Enterococcus faecium A949; conditions: multiply-resistant strain (in particular quinolone-resistant), read-out: MIC for E. faecium A949
Experimental: as §1, §2

Compound | MIC [1] | MIC [2] | MIC [3] | MIC [4] | MIC [5]
O=C1COc2ccc(-n3nc(CCCN[C@H]4Cn5c(=O)ccc6ccc(F)c4c65)oc3=O)nc2N1 [Example 9, (R)-9-fluoro-1-{3-[5-oxo-4-(3-oxo-3,4-dihydro-2H-pyrido[3,2-b][1,4]oxazin-6-yl)-4,5-dihydro-[1,3,4]oxadiazol-2-yl]-propylamino}-1,2-dihydro-pyrrolo[3,2,1-ij]quinolin-4-one] | 1 µg/mL (≈ 2.09 µM) | 0.125 µg/mL (≈ 0.261 µM) | 0.25 µg/mL (≈ 0.523 µM) | 0.125 µg/mL (≈ 0.261 µM) | 0.5 µg/mL (≈ 1.05 µM)
O=C1COc2ccc(-n3nc(CCCN[C@@H]4Cn5c(=O)ccc6ccc(F)c4c65)oc3=O)cc2N1 [Example 11, (S)-9-fluoro-1-{3-[5-oxo-4-(3-oxo-3,4-dihydro-2H-benzo[1,4]oxazin-6-yl)-4,5-dihydro-[1,3,4]oxadiazol-2-yl]-propylamino}-1,2-dihydro-pyrrolo[3,2,1-ij]quinolin-4-one] | 0.25 µg/mL (≈ 0.524 µM) | ≤ 0.016 µg/mL | 0.063 µg/mL (≈ 0.132 µM) | 0.031 µg/mL (≈ 0.0649 µM) | 0.25 µg/mL (≈ 0.524 µM)
CCOc1ccc(-n2nc(CCCN[C@@H]3Cn4c(=O)cnc5ccc(F)c3c54)oc2=O)cc1 [Example 30, (S)-6-{3-[4-(4-ethoxy-phenyl)-5-oxo-4,5-dihydro-[1,3,4]oxadiazol-2-yl]-propylamino}-7-fluoro-5,6-dihydro-pyrrolo[1,2,3-de]quinoxalin-3-one] | 4 µg/mL (≈ 8.86 µM) | 8 µg/mL (≈ 17.7 µM) | 4 µg/mL (≈ 8.86 µM) | 1 µg/mL (≈ 2.22 µM) | 8 µg/mL (≈ 17.7 µM)
Cc1ccc2ccc(=O)n3c2c1[C@H](NCCCc1nn(-c2ccc4c(n2)NC(=O)CO4)c(=O)o1)C3 [Example 40, (S)-9-methyl-1-{3-[5-oxo-4-(3-oxo-3,4-dihydro-2H-pyrido[3,2-b][1,4]oxazin-6-yl)-4,5-dihydro-[1,3,4]oxadiazol-2-yl]-propylamino}-1,2-dihydro-pyrrolo[3,2,1-ij]quinolin-4-one] | 2 µg/mL (≈ 4.22 µM) | 0.5 µg/mL (≈ 1.05 µM) | 2 µg/mL (≈ 4.22 µM) | 1 µg/mL (≈ 2.11 µM) | 2 µg/mL (≈ 4.22 µM)
O=C1CSc2ccc(-n3nc(CCCN[C@H]4Cn5c(=O)cnc6ccc(F)c4c65)oc3=O)nc2N1 [Example 16, (R)-7-fluoro-6-{3-[5-oxo-4-(3-oxo-3,4-dihydro-2H-pyrido[3,2-b][1,4]-thiazin-6-yl)-4,5-dihydro-[1,3,4]oxadiazol-2-yl]-propylamino}-5,6-dihydro-pyrrolo[1,2,3-de]quinoxalin-3-one] | 0.25 µg/mL (≈ 0.505 µM) | 0.063 µg/mL (≈ 0.127 µM) | 0.063 µg/mL (≈ 0.127 µM) | 0.063 µg/mL (≈ 0.127 µM) | 0.25 µg/mL (≈ 0.505 µM)
O=C1CSc2ccc(-n3nc(CCCN[C@@H]4Cn5c(=O)cnc6ccc(F)c4c65)oc3=O)cc2N1 [Example 20, (S)-7-fluoro-6-{3-[5-oxo-4-(3-oxo-3,4-dihydro-2H-benzo[1,4]-thiazin-6-yl)-4,5-dihydro-[1,3,4]oxadiazol-2-yl]-propylamino}-5,6-dihydro-pyrrolo[1,2,3-de]quinoxalin-3-one] | ≤ 0.016 µg/mL | 0.063 µg/mL (≈ 0.127 µM) | ≤ 0.016 µg/mL | ≤ 0.016 µg/mL | 0.25 µg/mL (≈ 0.506 µM)
O=C1CSc2ccc(-n3nc(CCCN[C@H]4Cn5c(=O)cnc6ccc(F)c4c65)oc3=O)cc2N1 [Example 21, (R)-7-fluoro-6-{3-[5-oxo-4-(3-oxo-3,4-dihydro-2H-benzo[1,4]-thiazin-6-yl)-4,5-dihydro-[1,3,4]oxadiazol-2-yl]-propylamino}-5,6-dihydro-pyrrolo[1,2,3-de]quinoxalin-3-one] | ≤ 0.016 µg/mL | 0.063 µg/mL (≈ 0.127 µM) | ≤ 0.016 µg/mL | ≤ 0.016 µg/mL | 0.25 µg/mL (≈ 0.506 µM)
CCSc1ccc(-n2nc(CCCN[C@@H]3Cn4c(=O)ccc5ccc(F)c3c54)oc2=O)cc1 [Example 4, (S)-1-{3-[4-(4-ethylsulfanyl-phenyl)-5-oxo-4,5-dihydro-[1,3,4]oxadiazol-2-yl]-propylamino}-9-fluoro-1,2-dihydro-pyrrolo[3,2,1-ij]quinolin-4-one] | 8 µg/mL (≈ 17.1 µM) | 0.5 µg/mL (≈ 1.07 µM) | 0.5 µg/mL (≈ 1.07 µM) | 0.063 µg/mL (≈ 0.135 µM) | 0.5 µg/mL (≈ 1.07 µM)
CCCc1ccc(-n2nc(CCCN[C@@H]3Cn4c(=O)ccc5ccc(F)c3c54)oc2=O)cc1 [Example 1, (S)-9-fluoro-1-{3-[5-oxo-4-(4-propyl-phenyl)-4,5-dihydro-[1,3,4]oxadiazol-2-yl]-propylamino}-1,2-dihydro-pyrrolo[3,2,1-ij]quinolin-4-one] | > 8 µg/mL | 2 µg/mL (≈ 4.46 µM) | 2 µg/mL (≈ 4.46 µM) | 0.25 µg/mL (≈ 0.557 µM) | 1 µg/mL (≈ 2.23 µM)
CCCc1ccc(-n2nc(CCCN[C@H]3Cn4c(=O)ccc5ccc(F)c3c54)oc2=O)cc1 [Example 26, (R)-9-fluoro-1-{3-[5-oxo-4-(4-propyl-phenyl)-4,5-dihydro-[1,3,4]oxadiazol-2-yl]-propylamino}-1,2-dihydro-pyrrolo[3,2,1-ij]quinolin-4-one] | 2 µg/mL (≈ 4.46 µM) | 0.5 µg/mL (≈ 1.11 µM) | 0.5 µg/mL (≈ 1.11 µM) | 0.125 µg/mL (≈ 0.279 µM) | 0.5 µg/mL (≈ 1.11 µM)
O=C1COc2ccc(-n3nc(CCCN[C@H]4Cn5c(=O)cnc6cccc4c65)oc3=O)nc2N1 [Example 36, (R)-6-{3-[5-oxo-4-(3-oxo-3,4-dihydro-2H-pyrido[3,2-b][1,4]oxazin-6-yl)-4,5-dihydro-[1,3,4]oxadiazol-2-yl]-propylamino}-5,6-dihydro-pyrrolo[1,2,3-de]quinoxalin-3-one] | 4 µg/mL (≈ 8.67 µM) | 2 µg/mL (≈ 4.33 µM) | 4 µg/mL (≈ 8.67 µM) | 4 µg/mL (≈ 8.67 µM) | 8 µg/mL (≈ 17.3 µM)
CC(C)c1ccc(-n2nc(CCCN[C@@H]3Cn4c(=O)ccc5ccc(F)c3c54)oc2=O)cc1 [Example 3, (S)-9-fluoro-1-{3-[4-(4-isopropyl-phenyl)-5-oxo-4,5-dihydro-[1,3,4]oxadiazol-2-yl]-propylamino}-1,2-dihydro-pyrrolo[3,2,1-ij]quinolin-4-one] | > 8 µg/mL | 2 µg/mL (≈ 4.46 µM) | 0.25 µg/mL (≈ 0.557 µM) | 0.063 µg/mL (≈ 0.14 µM) | 0.25 µg/mL (≈ 0.557 µM)
O=C1COc2ccc(-n3nc(CCCN[C@@H]4Cn5c(=O)cnc6cccc4c65)oc3=O)nc2N1 [Example 35, (S)-6-{3-[5-oxo-4-(3-oxo-3,4-dihydro-2H-pyrido[3,2-b][1,4]oxazin-6-yl)-4,5-dihydro-[1,3,4]oxadiazol-2-yl]-propylamino}-5,6-dihydro-pyrrolo[1,2,3-de]quinoxalin-3-one] | 2 µg/mL (≈ 4.33 µM) | 0.5 µg/mL (≈ 1.08 µM) | 1 µg/mL (≈ 2.17 µM) | 0.5 µg/mL (≈ 1.08 µM) | 4 µg/mL (≈ 8.67 µM)
O=C1COc2ccc(-n3nc(CCCN[C@@H]4Cn5c(=O)cnc6ccc(F)c4c65)oc3=O)nc2N1 [Example 7, (S)-7-fluoro-6-{3-[5-oxo-4-(3-oxo-3,4-dihydro-2H-pyrido[3,2-b][1,4]oxazin-6-yl)-4,5-dihydro-[1,3,4]oxadiazol-2-yl]-propylamino}-5,6-dihydro-pyrrolo[1,2,3-de]quinoxalin-3-one] | 2 µg/mL (≈ 4.17 µM) | 0.25 µg/mL (≈ 0.521 µM) | 0.5 µg/mL (≈ 1.04 µM) | 0.25 µg/mL (≈ 0.521 µM) | 2 µg/mL (≈ 4.17 µM)
